Test results as given in patent US20240261274A1, “TREATMENT OF MYC-DRIVEN CANCERS WITH GSPT1 DEGRADERS” (MONTE ROSA THERAPEUTICS, INC., priority 2021, published 2024).

Tests used:
Type in all cases: cell-based
Conditions in all cases: MM1 S cells, 0.3, 3 and 30 μM, 6 hours
CK1alpha = molecular target: T1, CK1alpha (Homo sapiens, UniProt P48729+Q96SW2); test: Selectivity western blot assay in MM1 S cells, CK1alpha; set-up: key: A represents no degradation observed at 30 μM; B represents trace degradation at 30 μM (below 20%); C represents weak degradation at 30 μM (below 50%); D represents degradation at 30 μM (>90%); E represents degradation at 3 μM (>90%); F represents degradation at 0.3 μM (>90%)
T1 construct: endogenous in cells; host or cells: MM1 S (ATCC CRL-2974)
T1 sequence (P48729 whole entry): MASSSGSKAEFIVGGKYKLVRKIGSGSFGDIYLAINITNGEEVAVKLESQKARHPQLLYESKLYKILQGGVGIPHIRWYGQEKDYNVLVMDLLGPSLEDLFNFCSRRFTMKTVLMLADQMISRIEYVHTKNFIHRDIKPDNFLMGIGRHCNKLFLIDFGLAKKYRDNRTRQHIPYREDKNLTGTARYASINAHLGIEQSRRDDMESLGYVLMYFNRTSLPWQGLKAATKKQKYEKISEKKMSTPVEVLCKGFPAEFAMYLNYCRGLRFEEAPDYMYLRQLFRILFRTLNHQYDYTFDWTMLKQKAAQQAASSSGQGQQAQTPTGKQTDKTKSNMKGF
T1 sequence (Q96SW2 whole entry): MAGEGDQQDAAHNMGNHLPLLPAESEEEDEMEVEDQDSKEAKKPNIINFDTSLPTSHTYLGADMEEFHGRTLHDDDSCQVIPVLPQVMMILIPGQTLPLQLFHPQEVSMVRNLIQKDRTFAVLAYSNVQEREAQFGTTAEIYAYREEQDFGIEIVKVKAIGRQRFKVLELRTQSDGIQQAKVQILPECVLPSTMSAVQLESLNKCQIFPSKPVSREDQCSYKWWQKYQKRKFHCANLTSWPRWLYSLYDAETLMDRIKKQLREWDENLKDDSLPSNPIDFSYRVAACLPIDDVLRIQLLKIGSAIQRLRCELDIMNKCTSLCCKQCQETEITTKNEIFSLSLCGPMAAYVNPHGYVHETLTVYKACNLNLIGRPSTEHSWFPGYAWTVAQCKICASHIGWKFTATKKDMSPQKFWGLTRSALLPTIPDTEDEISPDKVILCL
T1 sequence (Q16531 whole entry partner): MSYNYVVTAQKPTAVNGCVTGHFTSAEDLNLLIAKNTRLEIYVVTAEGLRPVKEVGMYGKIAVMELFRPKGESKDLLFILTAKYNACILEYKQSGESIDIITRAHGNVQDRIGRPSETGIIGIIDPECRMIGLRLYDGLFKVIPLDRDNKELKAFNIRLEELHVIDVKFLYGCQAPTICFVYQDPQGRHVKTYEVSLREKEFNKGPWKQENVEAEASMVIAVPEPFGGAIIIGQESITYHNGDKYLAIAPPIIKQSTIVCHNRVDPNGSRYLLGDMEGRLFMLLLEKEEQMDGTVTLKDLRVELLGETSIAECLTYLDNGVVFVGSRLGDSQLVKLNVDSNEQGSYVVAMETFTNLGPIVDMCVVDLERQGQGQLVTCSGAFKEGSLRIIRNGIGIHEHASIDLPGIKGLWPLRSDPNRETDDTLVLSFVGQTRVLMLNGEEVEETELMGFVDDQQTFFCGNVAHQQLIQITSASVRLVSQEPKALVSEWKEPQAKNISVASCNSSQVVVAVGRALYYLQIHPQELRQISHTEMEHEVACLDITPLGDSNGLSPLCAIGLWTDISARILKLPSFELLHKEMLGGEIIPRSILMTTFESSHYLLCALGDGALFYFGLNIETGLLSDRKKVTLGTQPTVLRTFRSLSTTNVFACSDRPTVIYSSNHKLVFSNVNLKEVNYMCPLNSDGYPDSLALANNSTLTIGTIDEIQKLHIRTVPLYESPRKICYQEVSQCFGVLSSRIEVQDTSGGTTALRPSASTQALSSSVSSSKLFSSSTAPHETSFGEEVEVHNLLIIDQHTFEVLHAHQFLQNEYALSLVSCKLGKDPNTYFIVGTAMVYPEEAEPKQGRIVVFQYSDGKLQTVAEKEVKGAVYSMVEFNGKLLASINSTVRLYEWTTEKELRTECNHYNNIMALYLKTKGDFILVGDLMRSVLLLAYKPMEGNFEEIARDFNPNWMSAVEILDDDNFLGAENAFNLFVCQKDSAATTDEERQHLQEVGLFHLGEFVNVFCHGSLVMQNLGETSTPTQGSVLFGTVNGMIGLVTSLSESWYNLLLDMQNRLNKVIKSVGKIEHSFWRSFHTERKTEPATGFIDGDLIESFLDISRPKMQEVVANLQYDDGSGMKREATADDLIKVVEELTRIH
Protocol: (§1) MM1 S cells were purchased from ATCC (cat. Number CRL-2974), sub-cultured in 90% RPMI 1640 with 10% FBS, supplemented with 1×P/S and incubated at 37° C., 5% CO2. Compounds were stored as 10 mM DMSO stock. For the assay, MM1 S cells (3 million cells/well) were plated in 6-well plates and incubated over night. Cells were treated with respective compounds using a serial dilution: 0.3 μM, 3 μM and 30 μM as well as a vehicle only (DMSO) control for 6 hours. Media with suspension cells was subsequently transferred to 15 mL conical tubes, wells rinsed twice with ice-cold PBS and merged with cell suspension in respective 15 mL conical tube. Cells were spinned down, supernatant aspirated, pellets resuspended in ice-cold PBS and transferred to microtubes. Cells were spinned down, supernatant aspirated and pellets resuspended in 120 μL RIPA lysis buffer supplemented with protease and phosphatase inhibitors. Cell lysates were incubated on ice for 20 minutes followed by centrifugation at >20,000×g for 5 min. Supernatants were transferred to fresh microtubes and stored at −80° C. Total protein concentration was determined using a BCA assay with a BSA standard curve and concentration of all samples was adjusted to 1 mg/mL. 25 μL 4×LDS sample buffer supplemented with 100 mM DTT was added to 75 μL sample. Samples were centrifuged (8,000×g, 1 min) and incubated at 95° C. for 5 min followed by another centrifugation step (8,000×g, 1 min). 20 μL of each sample was loaded on a 4-12% gel alongside a protein molecular weight marker. Gels were run in the presence of MOPS buffer at 80 Volts for 30 min, followed by 120 Volts for 1.5 h and proteins subsequently transferred onto nitrocellulose membranes at 20 Volts for 7 min using an iBlot2 Gel Transfer Device. Membranes were then cut horizontally into two pieces, covering 80-50 kDa and 50-25 kDa. Blocking the membranes was performed by gently shaking in 5% (w/v) skim milk in TSB-T for 1 hr at room temperature. All primary antibodies were used at a 1/1000 in 5% (w/v) BSA dissolved in TBST and incubated with membranes over night at 4° C. After three washes with 1×TBST for 5 min, HRP-coupled secondary antibodies diluted in 5% (w/v) BSA/TBST (Goat Anti-Rb IgG, dil. 1/10,000; Goat Anti-Mouse IgG, dil. 1/5000) were added for 1 hr at room temperature. After three washes with 1×TBST (5 minutes each), membranes were incubated with ECL reagent for 1 min at room temperature. Chemiluminescence signals were then detected using a LAS-4000 system with default settings and signals quantified using Image Studio Lite software (version 5.2). Membrane parts previously incubated with antibody against CK1 alpha were stripped off antibodies by incubating with stripping buffer for 30 minutes followed by three washed with TBST (5 min each), blocking with 5% (w/v) skim milk for 1 hr, and incubation with primary antibody against uGAPDH overnight at 4° C. Subsequent washes, incubation with secondary antibody and signal acquisition were performed as described above.

IKZF1 = molecular target: T2, IKZF1 (Homo sapiens, UniProt Q13422+Q96SW2); test: Selectivity western blot assay in MM1 S cells, IKZF1; set-up: key: A represents no degradation observed at 30 μM; B represents trace degradation at 30 μM (below 20%); C represents weak degradation at 30 μM (below 50%); D represents degradation at 30 μM (>90%); E represents degradation at 3 μM (>90%); F represents degradation at 0.3 μM (>90%)
T2 construct: endogenous in cells; host or cells: MM1 S (ATCC CRL-2974)
T2 sequence (Q13422 whole entry): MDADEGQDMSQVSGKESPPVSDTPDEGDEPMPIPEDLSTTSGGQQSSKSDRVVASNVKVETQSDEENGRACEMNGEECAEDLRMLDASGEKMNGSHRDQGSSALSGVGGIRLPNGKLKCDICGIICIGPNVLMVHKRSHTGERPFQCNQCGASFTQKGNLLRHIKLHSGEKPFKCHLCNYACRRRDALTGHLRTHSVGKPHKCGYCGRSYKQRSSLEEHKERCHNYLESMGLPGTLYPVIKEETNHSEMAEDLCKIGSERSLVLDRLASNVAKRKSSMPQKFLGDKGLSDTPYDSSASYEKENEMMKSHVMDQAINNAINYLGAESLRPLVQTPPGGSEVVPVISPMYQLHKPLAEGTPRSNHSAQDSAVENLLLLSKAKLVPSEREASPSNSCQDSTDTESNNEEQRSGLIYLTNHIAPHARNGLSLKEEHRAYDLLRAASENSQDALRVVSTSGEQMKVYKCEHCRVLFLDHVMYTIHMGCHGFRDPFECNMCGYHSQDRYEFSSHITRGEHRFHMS
T2 sequence (Q96SW2 whole entry): as the sequence (Q96SW2 whole entry) above
T2 sequence (Q16531 whole entry partner): as the sequence (Q16531 whole entry partner) above
Protocol: as §1

GSPT1 = GSPT1 (Homo sapiens, UniProt P15170+Q96SW2); test: Selectivity western blot assay in MM1 S cells, GSPT1; set-up: endogenous in cells; host or cells: MM1 S (ATCC CRL-2974)
Chain of GSPT1 (P15170 whole entry): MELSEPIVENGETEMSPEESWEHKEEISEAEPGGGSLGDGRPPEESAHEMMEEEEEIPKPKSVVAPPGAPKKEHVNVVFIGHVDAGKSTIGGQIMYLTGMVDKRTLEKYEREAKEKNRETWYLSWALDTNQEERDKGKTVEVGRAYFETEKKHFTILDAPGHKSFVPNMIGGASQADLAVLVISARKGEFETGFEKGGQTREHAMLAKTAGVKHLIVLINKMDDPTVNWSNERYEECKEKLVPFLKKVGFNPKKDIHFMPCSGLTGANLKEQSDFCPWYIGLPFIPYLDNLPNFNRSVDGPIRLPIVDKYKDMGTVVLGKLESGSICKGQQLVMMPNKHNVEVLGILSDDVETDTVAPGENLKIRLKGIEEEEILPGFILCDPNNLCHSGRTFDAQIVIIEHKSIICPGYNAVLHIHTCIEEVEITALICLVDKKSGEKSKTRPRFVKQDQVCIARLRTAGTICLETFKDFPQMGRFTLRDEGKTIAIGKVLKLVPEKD
Chain of GSPT1 (Q96SW2 whole entry): as the sequence (Q96SW2 whole entry) above
Chain of GSPT1 (Q16531 whole entry partner): as the sequence (Q16531 whole entry partner) above
Protocol: as §1

IKZF3 = molecular target: T3, IKZF3 (Homo sapiens, UniProt Q96SW2+Q9UKT9); test: Selectivity western blot assay in MM1 S cells, IKZF3; set-up: key: A represents no degradation observed at 30 μM; B represents trace degradation at 30 μM (below 20%); C represents weak degradation at 30 μM (below 50%); D represents degradation at 30 μM (>90%); E represents degradation at 3 μM (>90%); F represents degradation at 0.3 μM (>90%)
T3 construct: endogenous in cells; host or cells: MM1 S (ATCC CRL-2974)
T3 sequence (Q9UKT9 whole entry): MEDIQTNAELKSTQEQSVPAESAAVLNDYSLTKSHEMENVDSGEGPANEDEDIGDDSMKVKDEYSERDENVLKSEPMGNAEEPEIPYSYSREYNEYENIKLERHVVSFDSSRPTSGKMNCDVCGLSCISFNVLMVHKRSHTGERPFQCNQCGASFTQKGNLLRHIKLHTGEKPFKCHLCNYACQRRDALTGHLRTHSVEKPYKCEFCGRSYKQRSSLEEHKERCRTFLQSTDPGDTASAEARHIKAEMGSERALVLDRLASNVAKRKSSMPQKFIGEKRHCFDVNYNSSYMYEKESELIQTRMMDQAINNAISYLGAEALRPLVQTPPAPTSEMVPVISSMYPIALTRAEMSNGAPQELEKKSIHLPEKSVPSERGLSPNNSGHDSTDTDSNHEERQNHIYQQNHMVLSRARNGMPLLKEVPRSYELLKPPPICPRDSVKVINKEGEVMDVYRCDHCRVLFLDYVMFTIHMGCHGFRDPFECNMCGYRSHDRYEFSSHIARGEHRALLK
T3 sequence (Q96SW2 whole entry): as the sequence (Q96SW2 whole entry) above
T3 sequence (Q16531 whole entry partner): as the sequence (Q16531 whole entry partner) above
Protocol: as §1

ZFP91 = molecular target: T4, ZFP91 (Homo sapiens, UniProt Q96JP5+Q96SW2); test: Selectivity western blot assay in MM1 S cells, ZFP91; set-up: key: A represents no degradation observed at 30 μM; B represents trace degradation at 30 μM (below 20%); C represents weak degradation at 30 μM (below 50%); D represents degradation at 30 μM (>90%); E represents degradation at 3 μM (>90%); F represents degradation at 0.3 μM (>90%)
T4 construct: endogenous in cells; host or cells: MM1 S (ATCC CRL-2974)
T4 sequence (Q96JP5 whole entry): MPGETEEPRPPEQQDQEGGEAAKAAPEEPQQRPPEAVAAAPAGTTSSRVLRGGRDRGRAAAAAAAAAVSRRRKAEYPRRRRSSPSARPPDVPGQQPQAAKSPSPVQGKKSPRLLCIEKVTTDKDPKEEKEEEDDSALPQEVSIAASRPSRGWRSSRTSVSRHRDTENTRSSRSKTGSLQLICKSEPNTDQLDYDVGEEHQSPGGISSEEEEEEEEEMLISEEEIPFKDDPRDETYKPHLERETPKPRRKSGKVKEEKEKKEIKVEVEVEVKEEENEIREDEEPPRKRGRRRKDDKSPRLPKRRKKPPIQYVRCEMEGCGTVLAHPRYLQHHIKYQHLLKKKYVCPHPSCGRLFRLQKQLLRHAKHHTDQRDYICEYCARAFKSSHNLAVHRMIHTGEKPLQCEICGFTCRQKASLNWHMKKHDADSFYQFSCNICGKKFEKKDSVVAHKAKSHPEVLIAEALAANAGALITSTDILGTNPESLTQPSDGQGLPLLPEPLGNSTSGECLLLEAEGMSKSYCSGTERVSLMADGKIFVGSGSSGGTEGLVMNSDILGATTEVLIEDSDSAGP
T4 sequence (Q96SW2 whole entry): as the sequence (Q96SW2 whole entry) above
T4 sequence (Q16531 whole entry partner): as the sequence (Q16531 whole entry partner) above
Protocol: as §1

| SMILES | IKZF1 degradation (IKZF1) | IKZF3 degradation (IKZF3) | CK1alpha degradation (CK1alpha) | GSPT1 degradation (GSPT1) | ZFP91 degradation (ZFP91) |
| --- | --- | --- | --- | --- | --- |
| O=C1CCC(N2Cc3ccc(COC(=O)Nc4ccc(N5CCCCC5)nc4)cc3C2=O)C(=O)N1 (centres unmarked) [Compound 215] | A | B (B represents trace degradation at 30 μM (below 20%)) | C (C represents weak degradation at 30 μM (below 50%)) | F (F represents degradation at 0.3 μM (>90%)) |  |
| Cc1cc(C)c(NC(=O)NCc2ccc3c(c2)C(=O)N(C2CCC(=O)NC2=O)C3)cc1Cl (centres unmarked) [Compound 85] | A | A | B (B represents trace degradation at 30 μM (below 20%)) | E (E represents degradation at 3 μM (>90%)) | A |
| Cc1c(Cl)cc(NC(=O)NCc2ccc3c(c2)C(=O)N(C2CCC(=O)NC2=O)C3)cc1CC1COCOC1 (centres unmarked) [Compound 132] | A | A | C (C represents weak degradation at 30 μM (below 50%)) | F (F represents degradation at 0.3 μM (>90%)) | C (C represents weak degradation at 30 μM (below 50%)) |
| Cc1c(Cl)cc(NC(=O)NCc2ccc3c(c2)C(=O)N(C2CCC(=O)NC2=O)C3)cc1CN1CCOCC1 (centres unmarked) [Compound 82] | A | A | A | F (F represents degradation at 0.3 μM (>90%)) | A |
| Cc1c(Cl)cc(NC(=O)OCc2ccc3c(c2)C(=O)N(C2CCC(=O)NC2=O)C3)cc1OCCN1CCOCC1 (centres unmarked) [Compound 248] | A | B (B represents trace degradation at 30 μM (below 20%)) | B (B represents trace degradation at 30 μM (below 20%)) | F (F represents degradation at 0.3 μM (>90%)) |  |
| COc1cc(C)c(Cl)cc1NC(=O)OCc1ccc2c(c1)C(=O)N(C1CCC(=O)NC1=O)C2 (centres unmarked) [Compound 201] | A | B (B represents trace degradation at 30 μM (below 20%)) | B (B represents trace degradation at 30 μM (below 20%)) | F (F represents degradation at 0.3 μM (>90%)) | A |
| CC(C)(C)c1ccc(NC(=O)OCc2ccc3c(c2)C(=O)N(C2CCC(=O)NC2=O)C3)cn1 (centres unmarked) [Compound 243] | A | B (B represents trace degradation at 30 μM (below 20%)) | C (C represents weak degradation at 30 μM (below 50%)) | F (F represents degradation at 0.3 μM (>90%)) |  |
| Cc1ncc(NC(=O)OCc2ccc3c(c2)C(=O)N(C2CCC(=O)NC2=O)C3)cc1Cl (centres unmarked) [Compound 206] | A | B (B represents trace degradation at 30 μM (below 20%)) | A | F (F represents degradation at 0.3 μM (>90%)) |  |

Now from value to molecule, other results behind:

| IKZF1 degradation (IKZF1) | IKZF3 degradation (IKZF3) | SMILES | CK1alpha degradation (CK1alpha) | GSPT1 degradation (GSPT1) | ZFP91 degradation (ZFP91) |
| --- | --- | --- | --- | --- | --- |
| A | A | CC(C)(C)c1ccc(NC(=O)OCc2ccc3c(c2)C(=O)N(C2CCC(=O)NC2=O)C3)cc1 (centres unmarked) [Compound 247] | B (B represents trace degradation at 30 μM (below 20%)) | F (F represents degradation at 0.3 μM (>90%)) | B (B represents trace degradation at 30 μM (below 20%)) |
| A | A | O=C1CCC(N2Cc3ccc(COC(=O)Nc4ccc(-c5ccccc5)nc4)cc3C2=O)C(=O)N1 (centres unmarked) [Compound 242] | B (B represents trace degradation at 30 μM (below 20%)) | F (F represents degradation at 0.3 μM (>90%)) |  |
| A | A | CCc1ncc(NC(=O)OCc2ccc3c(c2)C(=O)N(C2CCC(=O)NC2=O)C3)cc1C (centres unmarked) [Compound 249] | B (B represents trace degradation at 30 μM (below 20%)) | F (F represents degradation at 0.3 μM (>90%)) | B (B represents trace degradation at 30 μM (below 20%)) |
